Source: patent publication US20130303575A1, “ADMINISTRATION OF AN INHIBITOR OF HDAC” (priority 2007, published 2013)
Like-named read-outs stand apart in the source and are kept apart here.

Columns and labels:
[1] = Tolerability, DLT and MTD in patients with refractory solid tumors or lymphoma (Example 1); format: in vivo
Description: Tolerability was assessed by scheduled clinical assessments. Adverse events (AEs) were assessed using the National Cancer Institute Common Toxicity Criteria (CTC) version 2.0. […] MTD was defined as the highest dose at which no more than 1 of 6 patients experienced DLT during the first treatment cycle.

[2] = test system: histone H3, H4 and protein acetylation; assay: Histone H3, H4 and protein acetylation, p21 and caspase-3 in PBMCs and BMMCs (Example 3); format: in vivo, human
Description: Serial marrow and/or peripheral blood cells were collected at weekly intervals to examine PAMC-induced changes in histone acetylation.
Changes in histone H3, H4 and protein acetylation (immunocytochemistry, multiparameter flow cytometry and western blot analysis.) Immunocytochemical analysis of histone H3 was performed on bone marrow mononuclear cells (BMMCs) as described previously. The multiparameter flow cytometric analysis of protein acetylation versus caspase-3 activation was performed on serial BM aspirates using monoclonal anti-acetylated lysine antibody (Cell Signaling Technology, Beverly, Mass.) followed by FITC-conjugated goat anti-mouse antibody (Caltag Laboratories, Burlingame, Calif.) and polyclonal PE-conjugated anti-caspase-3, active form antibody (BD Pharmingen, Sand Diego, Calif.). The analysis of protein acetylation versus p21 expression or CD 34 expression was performed using polyclonal anti-acetylated lysine antibody (Cell Signaling Technology) versus monoclonal anti-p21 antibody (BD Transduction Laboratories, San Jose, Calif.) or monoclonal anti-CD34 antibody (BD Pharmingen). Primary antibodies were detected using PE-conjugated goat anti-mouse and FITC-conjugated goat anti-rabbit antibodies (Caltag Laboratories). For staining, BMMCs were isolated using Ficoll-Paque Plus (Amersham Biosciences, Piscataway, N.J.) fixed in 0.4% paraformaldehyde, permeabilized with 0.4% Triton X-100, incubated with primary antibodies for 1 hour at room temperature, washed, incubated with secondary antibodies for 1 hour, washed and analyzed on a FACSCalibur flow cytometer (Becton Dickinson, San Jose, Calif.) using CellQuest software for acquisition and FloJo software for analysis.
For western blot analysis of histone acetylation, PBMCs and BMMCs were isolated using Ficoll-Paque Plus (Amersham Biosciences). Histones from the cells were prepared as follows: Cells were washed in 2 ml HBSS and disrupted by a 1 mL ice-cold lysis buffer A (10 mM Tris pH 7.6, 5 mM butyric acid, 1% Triton X-100, 1 mM MgCl2, and 1 mM PMSF). Nuclei were collected by centrifugation at 14,000 rpm for 15 min. The pellet was resuspended once with 250 μL ice-cold lysis buffer B (10 mM Tris pH 7.6, 0.25 M Sucrose, 3 mM CaCl2 and 5 mM butyric acid). Sulfuric acid was added to a concentration of 0.4 N and the tubes were incubated at 4° C. overnight. Debris was pelleted by centrifugation, and the supernatant was collected. Histones were precipitated by addition of 10 volumes of acetone and incubation at −20° C. overnight. Pellets were collected by centrifugation, briefly dried under vacuum and resuspended with dH2O. The total protein content was determined by a bicinchoninic acid assay kit (Pierce, Rockford, Ill.). The proteins 10-30 μg were separated by 15% SDS PAGE and visualized using the antibodies for acetyl-histone H3, acetyl-histone H4, and histone H2A, all from Upstate Biotechnologies (Lake Placid, N.Y.). The immunoreactive proteins were detected using ECL western blotting analysis system (Amersham Biosciences). Radiographic films of histone acetylation were scanned and digitized (UN-SCAN-IT), Silk Scientific, UT).

[3] = Plasma pharmacokinetics of oral SNDX-275 in patients with advanced and refractory solid tumors or lymphoma (Example 2); format: in vivo; settings: human; for Cmax / AUC / Tmax / half-life: plasma, oral
Description: The initial dosing schedule was daily oral administration for 28 days and 14-day recovery period, constituting a 42-day cycle. […] Samples were immediately centrifuged at 3000 g for 10 minutes at 4° C. and then plasma was divided into two aliquots of at least 1 mL and frozen at −70° C. until the time of analysis. Plasma samples were assayed by a specific and sensitive high-performance liquid chromatographic assay with mass-spectrometric detection. […] The pharmacokinetic parameters of interest included peak plasma concentration (Cmax), time to peak concentration (Tmax), area under the plasma concentration versus time curve extrapolated to infinity (AUC), apparent oral clearance (CL/F), and the terminal half-life (T1/2, z). The peak plasma concentrations (Cmax) and the time to peak plasma concentrations (Tmax) were the observed values. The area under the plasma concentration versus time curve (AUC) was calculated using the linear trapezoidal method from time zero to the time of the final quantifiable concentration (AUCtf). The AUC was then extrapolated to infinity (AUCinf) by dividing the last measured concentration by the rate constant of the terminal phase (k), which was determined by linear-regression analysis of the final three or four time points of the ling-linear concentration time plot. […] Deviations of β from 1 correspond to deviations from ideal dose proportionality. […] All PK data are presented as mean±SD, except where otherwise indicated. […] One-way analysis of variance was performed to compare mean values using a two-sided Dunnett's test. Statistical calculations were performed using the Number Cruncher Statistical System 2001 series (J. L. Hintze, Kaysville, Utah). The cut-off for statistical significance was considered at P<0.05.

Structure (SMILES): Nc1ccccc1NC(=O)c1ccc(CNC(=O)OCc2cccnc2)cc1 [SNDX-275, N-(2-aminophenyl) 4-[N-(pyrid-3-yl)methyloxycarbonylaminomethyl]benzamide]
- maximum tolerated dose (MTD) ([1]; Schedule A, 2-6 mg/m^2 biweekly): not reached
- drug-related grade 4 adverse events ([1]; human, in vivo): No drug-related grade 4 (gr4) adverse events (AEs) were reported
- histone H3 and H4 acetylation by western blotting ([2]; PBMCs and BMMCs, 8 patients at DL 4 and 1 patient at DL 5): increase in histone H3 and H4 acetylation
- protein and H3/H4 acetylation, p21 expression, caspase-3 activation ([2]; bone marrow mononuclear cells): increase in protein and H3/H4 acetylation, p21 expression, and caspase-3 activation
- specimens with caspase-3 activation ([2]; flow cytometric analysis): 67%
- time at which increase in histone H3 and H4 acetylation was evident ([2]; following SNDX-275 treatment, 4 patients with early PB specimens): 8 to 12 h
- persistence of histone acetylation following last SNDX-275 administration ([2]; in vivo): 2-3 weeks
- histone H3 acetylation by immunocytochemistry ([2]; lowest dose level): increase in histone H3 acetylation
- interpatient variability in clearance, comparison for body-surface area correction ([3]; in vivo): 39.5%
- Cmax ([3]; 2 mg/m2, 2 mg/m^2, q14-day, first dose, fed, 3 patients): 1.72 ng/mL
- AUC ([3]; 2 mg/m2, 2 mg/m^2, q14-day, first dose, fed, 3 patients, read-out: AUC Mean): 196 ng·h/mL
- Tmax ([3]; 2 mg/m2, 2 mg/m^2, q14-day, first dose, fed, 3 patients, read-out: Tmax Median): 6 h
- half-life ([3]; 2 mg/m2, 2 mg/m^2, q14-day, first dose, fed, 3 patients, read-out: t1/2 Mean (converted)): 80.2 h
- Cmax ([3]; 4 mg/m2, 4 mg/m^2, q14-day, first dose, fed, 3 patients): 4.84 ng/mL
- AUC ([3]; 4 mg/m2, 4 mg/m^2, q14-day, first dose, fed, 3 patients, read-out: AUC Mean): 392 ng·h/mL
- Tmax ([3]; 4 mg/m2, 4 mg/m^2, q14-day, first dose, fed, 3 patients, read-out: Tmax Median): 6 h
- half-life ([3]; 4 mg/m2, 4 mg/m^2, q14-day, first dose, fed, 3 patients, read-out: t1/2 Mean (converted)): 50.5 h
- Cmax ([3]; 6 mg/m2, 6 mg/m^2, q14-day, first dose, fed, 6 patients): 9.59 ng/mL
- AUC ([3]; 6 mg/m2, 6 mg/m^2, q14-day, first dose, fed, 6 patients, read-out: AUC Mean): 493 ng·h/mL
- Tmax ([3]; 6 mg/m2, 6 mg/m^2, q14-day, first dose, fed, 6 patients, read-out: Tmax Median): 2 h
- half-life ([3]; 6 mg/m2, 6 mg/m^2, q14-day, first dose, fed, 6 patients, read-out: t1/2 Mean (converted)): 52.8 h
- Cmax ([3]; 8 mg/m2, 8 mg/m^2, q14-day, first dose, fed, 5 patients): 15.5 ng/mL
- AUC ([3]; 8 mg/m2, 8 mg/m^2, q14-day, first dose, fed, 5 patients, read-out: AUC Mean): 358 ng·h/mL
- Tmax ([3]; 8 mg/m2, 8 mg/m^2, q14-day, first dose, fed, 5 patients, read-out: Tmax Median): 2 h
- half-life ([3]; 8 mg/m2, 8 mg/m^2, q14-day, first dose, fed, 5 patients, read-out: t1/2 Mean (converted)): 39.7 h
- Cmax ([3]; 10 mg/m2, 10 mg/m^2, q14-day, first dose, fed, 6 patients): 45.1 ng/mL
- AUC ([3]; 10 mg/m2, 10 mg/m^2, q14-day, first dose, fed, 6 patients, read-out: AUC Mean): 529 ng·h/mL
- Tmax ([3]; 10 mg/m2, 10 mg/m^2, q14-day, first dose, fed, 6 patients, read-out: Tmax Median): 1.5 h
- half-life ([3]; 10 mg/m2, 10 mg/m^2, q14-day, first dose, fed, 6 patients, read-out: t1/2 Mean (converted)): 51.6 h
- Cmax ([3]; 12 mg/m2, 12 mg/m^2, q14-day, first dose, fed, 4 patients): 132 ng/mL
- AUC ([3]; 12 mg/m2, 12 mg/m^2, q14-day, first dose, fed, 4 patients, read-out: AUC Mean): 680 ng·h/mL
- Tmax ([3]; 12 mg/m2, 12 mg/m^2, q14-day, first dose, fed, 4 patients, read-out: Tmax Median): 0.5 h
- half-life ([3]; 12 mg/m2, 12 mg/m^2, q14-day, first dose, fed, 4 patients, read-out: t1/2 Mean (converted)): 45 h
- Tmax ([3]; all doses 2 to 12 mg/m^2, q14-day, read-out: Tmax Grand median): 1.75 h
- half-life ([3]; all doses 2 to 12 mg/m^2, q14-day, read-out: t1/2 Grand mean (apparent terminal half-life) (converted)): 51.7 ± 21.6 h
- half-life ([3]; bi-exponential decline, read-out: T1/2 in plasma (converted)): ~50 h
- half-life ([3]; half-life of SNDX-275 in humans, preliminary PK analysis): 39 to 80 h
- Tmax ([3]; in some patients, read-out: earliest Tmax observed (converted)): 0.5 h
- AUC ([3]; n=4, FIG. 6, read-out: mean AUC in patients experiencing DLTs): 517 ± 276 ng·h/mL
- AUC ([3]; n=23, FIG. 6, read-out: mean AUC in patients without DLT): 280 ± 121 ng·h/mL
- Tmax ([3]; q14-day schedule, read-out: median Tmax): ~2 h
